This is an account of results in US8822430B2 (Gilead Sciences, Inc., priority 2009, dated 2014).

As a reminder, the EC50 is the concentration that produces a half-maximal response.

Where only a bound is given, the exact number is not on record here.

This assay has as its system HCV 1b RLuc cells (dicistronic genotype 1b Con1 replicon). Briefly: Renilla luciferase (RLuc)-based HCV replicon reporter assay. It is filed as cell-based, HCV genotype 1b. Conditions: Hepatitis C virus, 72 h, HCV 1b RLuc replicon, 72 hours; read-out: Activity (antiviral potency [EC50]). Summed up: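 EC50 values were calculated by non-linear regression of Renilla luciferase signal from lysed cells after 72 h of compound exposure. Cells harboured a genotype 1b Con1 dicistronic replicon encoding RLuc. Compounds were serially diluted in DMSO from 10 mM stocks into culture media.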
(In antiviral work, replicon cells carry a viral genome segment that copies itself.)
In the case of `COC(=O)N[C@H](C(=O)N1CCC[C@H]1c1ncc(-c2ccc3c(c2)sc2cc(-c4ccc5nc([C@@H]6[C@H]7CC[C@H](C7)N6C(=O)[C@@H](NC(=O)OC)C(C)C)[nH]c5c4)ccc23)[nH]1)C(C)C`, the EC50 worked out at 0.0037 nM.

`COC(=O)N[C@H](C(=O)N1CCC[C@H]1c1ncc(-c2ccc(C#Cc3ccc4nc([C@@H]5CCCN5C(=O)[C@@H](NC(=O)OC)C(C)C)[nH]c4c3)cc2)[nH]1)C(C)C`: the concentration giving a half-maximal response (EC50) was 0.0111 nM.

For `COC(=O)N[C@H](C(=O)N1CCC[C@H]1c1ncc(-c2ccc(-c3ccc(-c4cnc([C@@H]5COCCN5C(=O)[C@@H](NC(=O)OC)C(C)C)[nH]4)cc3)cc2)[nH]1)C(C)C`, the EC50 stood at 0.0214 nM.

As for `COC(=O)N[C@H](C(=O)N1CCC[C@H]1c1nc2ccc(-c3ccc4cc(-c5ccc6nc([C@@H]7CCCN7C(=O)[C@@H](NC(=O)OC)C(C)C)[nH]c6c5)ccc4c3)cc2[nH]1)C(C)C`, the EC50 was less than 0.0041 nM.

For `COC(=O)N[C@H](C(=O)N1CCC[C@H]1c1ncc(-c2ccc(-c3ccc(-c4cnc([C@@H]5CCCN5C(=O)[C@@H](NC(=O)OC)C(C)(C)S(C)(=O)=O)[nH]4)cc3)cc2)[nH]1)C(C)C`, the half-maximal effective concentration (EC50) came out at 0.161 nM.

Turning to `COC(=O)N[C@H](C(=O)N1CCC[C@H]1c1ncc(C#Cc2cccc3c(C#Cc4cnc([C@@H]5CCCN5C(=O)[C@@H](NC(=O)OC)C(C)C)[nH]4)cccc23)[nH]1)C(C)C`, the EC50 amounted to 0.0142 nM.

With `COC(=O)N[C@H](C(=O)N1CC2(C[C@H]1c1ncc(-c3ccc(-c4ccc(-c5cnc([C@@H]6CC7(CN6C(=O)[C@@H](NC(=O)OC)C(C)C)OCCO7)[nH]5)cc4)cc3)[nH]1)OCCO2)C(C)C`, the EC50 turned out to be 0.105 nM.

In the case of `COC(=O)N[C@H](C(=O)N1CCC[C@H]1c1ncc(-c2ccc(N3CCC(c4cnc([C@@H]5CCCN5C(=O)[C@@H](NC(=O)OC)C(C)C)[nH]4)CC3)cc2)[nH]1)C(C)C`, the 50% effective concentration (EC50) turned out to be 0.456 nM.

Consider `COC(=O)N[C@H](C(=O)N1CCC[C@H]1c1ncc(-c2ccc(-c3ccc(-c4cnc([C@@H]5CCCN5C(=O)[C@@H](NC(=O)OC)C(C)C)[nH]4)cc3C#N)cc2)[nH]1)C(C)C`, for which the EC50 is 0.0158 nM.

Regarding `COC(=O)N[C@@H](Cc1ccccc1)C(=O)N1CCC[C@H]1c1ncc(-c2ccc(-c3ccc4cc(-c5cnc([C@@H]6CCCN6C(=O)[C@@H](NC(=O)OC)C(C)C)[nH]5)ccc4c3)cc2)[nH]1`, the half-maximal effective concentration (EC50) stood at 0.0181 nM.

Consider `COC(=O)N[C@H](C(=O)N1[C@@H]2CC[C@@H](C2)[C@H]1c1ncc(-c2ccc(-c3ccc4cc(-c5cnc([C@@H]6CC7(CC7)CN6C(=O)[C@@H](NC(=O)OC)C6CCOCC6)[nH]5)ccc4c3)cc2)[nH]1)C(C)C`, for which the EC50 is 0.0136 nM.

As for `COC(=O)N[C@@H](CCOCC(F)(F)F)C(=O)N1CCC[C@H]1c1ncc(-c2ccc(-c3ccc(-c4cnc([C@@H]5CCCN5C(=O)[C@@H](NC(=O)OC)C(C)C)[nH]4)cc3)cc2)[nH]1`, the EC50 was found to be 0.0273 nM.

Take `COC(=O)N[C@H](C(=O)N1CCC[C@H]1c1ncc(-c2ccc(-c3ccc(-c4cnc([C@@H]5CCCN5C(=O)[C@@H](NC(=O)OC)C(C)C)[nH]4)c(C#N)c3)cc2)[nH]1)C(C)C`: the concentration for a half-maximal effect (EC50) came to 0.0192 nM.

For `COC(=O)N[C@H](C(=O)N1CCC[C@H]1c1nc2ccc(C#Cc3ccc4nc([C@@H]5CCCN5C(=O)[C@@H](NC(=O)OC)C(C)C)[nH]c4c3)cc2[nH]1)C(C)C`, the EC50 stood at 0.139 nM.

Turning to `COC(=O)N[C@H](C(=O)N1CCC[C@H]1c1ncc(-c2ccc3cc(-c4ccc(-c5cnc([C@@H]6C[C@H](CNS(C)(=O)=O)CN6C(=O)[C@@H](NC(=O)OC)C(C)C)[nH]5)cc4)ccc3c2)[nH]1)C(C)C`, the EC50 was found to be 0.12 nM.

Consider `COC(=O)NC(C(=O)N1CCC[C@H]1c1ncc(-c2cc3c(OC)c4sc(-c5cnc([C@@H]6CCCN6C(=O)C(NC(=O)OC)c6ccccc6)[nH]5)cc4c(OC)c3s2)[nH]1)c1ccccc1` (some centres unmarked), for which the EC50 came out at 0.0262 nM.

As to `COC(=O)N[C@@H](C)C(=O)N1[C@@H]2CC[C@@H](C2)[C@H]1c1ncc(-c2ccc3cc(-c4ccc5cc(-c6cnc([C@@H]7CCCN7C(=O)[C@@H](NC(=O)OC)C(C)C)[nH]6)ccc5c4)ccc3c2)[nH]1`, the EC50 came out at 1.17 nM.
